SMILES strings stand for the structures.

The target of assay [1] is Cyclin-dependent kinase 14 (Homo sapiens) (UniProt O94921). Nature of the assay: Selectivity interaction (KinomeScan (DiscoverX)) EUB0000595a CDK14. To be noted: at 10 µM.
The target of assay [2] is Tyrosine-protein kinase BTK (Homo sapiens, UniProt Q06187). Put plainly: Selectivity interaction (ActivX KiNativ screen (ex vivo kinase selectivity in human PBMCs)) EUB0001619a BTK. In kind it is cell-based. To be noted: PBMC, at 1 µM.
Assay [3] addresses T1, Ephrin type-A receptor 1 (Homo sapiens) (UniProt P21709).
T1 sequence (whole entry): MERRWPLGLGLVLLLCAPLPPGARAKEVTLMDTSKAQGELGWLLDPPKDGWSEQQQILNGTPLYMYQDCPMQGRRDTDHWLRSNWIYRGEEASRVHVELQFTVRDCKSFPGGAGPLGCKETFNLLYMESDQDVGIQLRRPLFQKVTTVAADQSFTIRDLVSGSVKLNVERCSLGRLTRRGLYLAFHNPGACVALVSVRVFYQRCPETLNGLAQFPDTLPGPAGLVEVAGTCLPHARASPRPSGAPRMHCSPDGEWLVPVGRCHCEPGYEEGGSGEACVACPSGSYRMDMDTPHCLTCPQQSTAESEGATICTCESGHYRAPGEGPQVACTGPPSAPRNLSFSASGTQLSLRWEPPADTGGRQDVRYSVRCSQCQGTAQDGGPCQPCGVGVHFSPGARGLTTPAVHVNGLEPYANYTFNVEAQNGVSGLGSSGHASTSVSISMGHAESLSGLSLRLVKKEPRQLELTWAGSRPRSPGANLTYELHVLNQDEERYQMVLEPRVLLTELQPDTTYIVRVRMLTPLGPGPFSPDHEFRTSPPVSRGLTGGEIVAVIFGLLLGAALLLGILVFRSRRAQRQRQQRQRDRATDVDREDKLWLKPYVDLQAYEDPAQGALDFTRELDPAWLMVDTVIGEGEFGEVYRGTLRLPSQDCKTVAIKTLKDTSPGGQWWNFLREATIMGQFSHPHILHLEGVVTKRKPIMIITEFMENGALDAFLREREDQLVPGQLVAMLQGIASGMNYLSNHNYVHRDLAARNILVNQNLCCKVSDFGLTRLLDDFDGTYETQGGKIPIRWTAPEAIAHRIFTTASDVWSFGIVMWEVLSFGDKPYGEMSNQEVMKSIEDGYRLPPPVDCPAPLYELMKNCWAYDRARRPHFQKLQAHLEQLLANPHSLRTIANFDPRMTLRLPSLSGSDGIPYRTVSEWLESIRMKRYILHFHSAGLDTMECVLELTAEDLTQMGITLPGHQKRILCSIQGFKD
Nature of the assay: Selectivity interaction (KinomeScan (DiscoverX)) EUB0001619a EPHA1. To be noted: at 1 µM.

The target of assay [4] is Citron Rho-interacting kinase (Homo sapiens) (UniProt O14578). To be noted: at 10 µM.
Assay [5] addresses Mast/stem cell growth factor receptor Kit (Homo sapiens, UniProt P10721). To be noted: at 10 µM.
Assay [6] addresses T2, Dual specificity mitogen-activated protein kinase kinase 4 (Homo sapiens) (UniProt P45985).
T2 sequence (whole entry): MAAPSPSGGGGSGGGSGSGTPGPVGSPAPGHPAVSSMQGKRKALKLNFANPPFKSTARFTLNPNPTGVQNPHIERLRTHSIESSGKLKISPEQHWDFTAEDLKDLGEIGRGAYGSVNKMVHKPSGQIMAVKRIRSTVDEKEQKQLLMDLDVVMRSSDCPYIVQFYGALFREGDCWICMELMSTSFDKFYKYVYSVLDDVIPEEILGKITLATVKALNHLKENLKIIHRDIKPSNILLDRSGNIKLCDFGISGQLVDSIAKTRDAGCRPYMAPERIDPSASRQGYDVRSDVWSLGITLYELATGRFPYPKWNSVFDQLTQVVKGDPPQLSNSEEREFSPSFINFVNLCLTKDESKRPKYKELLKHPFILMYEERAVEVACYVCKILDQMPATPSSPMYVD
Nature of the assay: Selectivity interaction (KinomeScan (DiscoverX)) EUB0000666a MAP2K4. To be noted: at 10 µM.

Assay [7] deals with T3, Phosphatidylinositol 4-kinase beta (Homo sapiens, UniProt Q9UBF8). Put plainly: Selectivity interaction (Kinase panel (Invitrogen)) EUB0000639a PI4KB. To be noted: at 200 nM.
The target in assay [8] is T3, Phosphatidylinositol 4-kinase beta. Nature of the assay: Selectivity interaction (ActivX KiNativ screen (kinase selectivity in THP-1 cell lysates)) EUB0000639a PI4KB. The format is subcellular. To be noted: lysate, at 5 µM.
In assay [9] the target is Ribosomal protein S6 kinase alpha-3 (Homo sapiens, UniProt P51812). Nature of the assay: Selectivity interaction (ActivX KiNativ screen (kinase selectivity in THP-1 cell lysates)) EUB0000639a RPS6KA3. To be noted: lysate, at 0.04 µM. In kind it is subcellular.
The target of assay [10] is T4, 5-hydroxytryptamine receptor 2C (Homo sapiens) (UniProt P28335).
T4 sequence (whole entry): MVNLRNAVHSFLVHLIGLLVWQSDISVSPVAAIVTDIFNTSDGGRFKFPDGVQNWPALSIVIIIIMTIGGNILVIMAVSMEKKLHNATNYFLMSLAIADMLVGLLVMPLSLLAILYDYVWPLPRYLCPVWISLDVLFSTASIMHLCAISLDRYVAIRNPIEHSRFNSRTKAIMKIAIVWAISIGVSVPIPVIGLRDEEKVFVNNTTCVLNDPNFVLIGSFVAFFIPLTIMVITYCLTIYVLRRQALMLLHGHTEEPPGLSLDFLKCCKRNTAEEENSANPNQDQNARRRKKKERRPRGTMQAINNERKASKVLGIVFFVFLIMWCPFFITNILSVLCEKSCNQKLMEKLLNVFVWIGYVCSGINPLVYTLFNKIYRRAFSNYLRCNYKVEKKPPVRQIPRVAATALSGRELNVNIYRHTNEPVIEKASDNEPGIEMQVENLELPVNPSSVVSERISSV
Put plainly: Selectivity interaction (GPCR panel (PDSP screen)) EUB0000311b HTR2C. To be noted: at 10 µM.

Assay [11] can be described thus: Selectivity interaction (Inhibition of ex vivo anti-IgM/IL-4 -induced proximal pAKT formation in rats) EUB0000877a PIK3CD.
Assay [12] has as its target Glycogen synthase kinase-3 alpha (Homo sapiens, UniProt P49840). Nature of the assay: Selectivity interaction (KinomeScan (DiscoverX)) EUB0001079a GSK3A. To be noted: at 1 µM.
Assay [13] concerns the target CDK3/cyclin E (Homo sapiens) (UniProt P24864+O96020+Q00526). Put plainly: Selectivity interaction (Millipore kinase profiler) EUB0000124b CDK3. The format is protein-complex assay. To be noted: at 10 µM.

T3 sequence (Q9UBF8 2-816 limits assumed): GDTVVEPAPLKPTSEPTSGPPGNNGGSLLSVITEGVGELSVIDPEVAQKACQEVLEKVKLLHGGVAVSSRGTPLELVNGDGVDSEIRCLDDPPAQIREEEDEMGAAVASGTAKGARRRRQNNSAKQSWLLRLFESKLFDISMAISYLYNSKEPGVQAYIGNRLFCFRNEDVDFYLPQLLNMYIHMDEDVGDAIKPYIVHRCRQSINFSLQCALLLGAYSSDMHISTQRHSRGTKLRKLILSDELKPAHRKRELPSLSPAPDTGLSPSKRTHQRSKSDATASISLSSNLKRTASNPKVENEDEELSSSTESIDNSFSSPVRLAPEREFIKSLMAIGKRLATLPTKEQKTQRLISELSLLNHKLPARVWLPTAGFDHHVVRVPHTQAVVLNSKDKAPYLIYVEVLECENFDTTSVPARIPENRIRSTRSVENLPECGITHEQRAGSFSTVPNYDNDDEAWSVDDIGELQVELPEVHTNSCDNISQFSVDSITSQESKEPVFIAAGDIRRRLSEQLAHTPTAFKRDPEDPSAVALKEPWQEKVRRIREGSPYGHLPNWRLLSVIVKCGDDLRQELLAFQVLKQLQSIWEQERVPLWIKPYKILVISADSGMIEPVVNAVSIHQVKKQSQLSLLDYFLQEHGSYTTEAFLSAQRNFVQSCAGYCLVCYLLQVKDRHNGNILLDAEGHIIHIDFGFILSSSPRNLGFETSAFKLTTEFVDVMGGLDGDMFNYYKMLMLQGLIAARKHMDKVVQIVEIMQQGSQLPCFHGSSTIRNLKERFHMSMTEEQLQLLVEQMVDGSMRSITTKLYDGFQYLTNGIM
Chain of Glycogen synthase kinase-3 alpha (P49840 2-483 limits assumed): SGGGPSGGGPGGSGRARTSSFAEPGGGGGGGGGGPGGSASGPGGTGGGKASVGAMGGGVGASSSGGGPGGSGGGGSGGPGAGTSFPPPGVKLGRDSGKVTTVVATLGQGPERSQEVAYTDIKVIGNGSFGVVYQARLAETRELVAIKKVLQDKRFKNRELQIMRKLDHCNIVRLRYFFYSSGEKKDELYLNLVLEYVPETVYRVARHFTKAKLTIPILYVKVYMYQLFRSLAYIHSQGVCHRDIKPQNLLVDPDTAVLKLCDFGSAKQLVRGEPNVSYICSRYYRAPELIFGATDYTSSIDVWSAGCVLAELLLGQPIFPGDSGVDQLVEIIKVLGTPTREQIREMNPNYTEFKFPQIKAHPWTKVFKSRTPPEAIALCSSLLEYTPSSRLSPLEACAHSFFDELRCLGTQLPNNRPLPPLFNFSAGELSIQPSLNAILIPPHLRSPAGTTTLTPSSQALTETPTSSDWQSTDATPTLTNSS
Chain of Mast/stem cell growth factor receptor Kit (P10721 whole entry): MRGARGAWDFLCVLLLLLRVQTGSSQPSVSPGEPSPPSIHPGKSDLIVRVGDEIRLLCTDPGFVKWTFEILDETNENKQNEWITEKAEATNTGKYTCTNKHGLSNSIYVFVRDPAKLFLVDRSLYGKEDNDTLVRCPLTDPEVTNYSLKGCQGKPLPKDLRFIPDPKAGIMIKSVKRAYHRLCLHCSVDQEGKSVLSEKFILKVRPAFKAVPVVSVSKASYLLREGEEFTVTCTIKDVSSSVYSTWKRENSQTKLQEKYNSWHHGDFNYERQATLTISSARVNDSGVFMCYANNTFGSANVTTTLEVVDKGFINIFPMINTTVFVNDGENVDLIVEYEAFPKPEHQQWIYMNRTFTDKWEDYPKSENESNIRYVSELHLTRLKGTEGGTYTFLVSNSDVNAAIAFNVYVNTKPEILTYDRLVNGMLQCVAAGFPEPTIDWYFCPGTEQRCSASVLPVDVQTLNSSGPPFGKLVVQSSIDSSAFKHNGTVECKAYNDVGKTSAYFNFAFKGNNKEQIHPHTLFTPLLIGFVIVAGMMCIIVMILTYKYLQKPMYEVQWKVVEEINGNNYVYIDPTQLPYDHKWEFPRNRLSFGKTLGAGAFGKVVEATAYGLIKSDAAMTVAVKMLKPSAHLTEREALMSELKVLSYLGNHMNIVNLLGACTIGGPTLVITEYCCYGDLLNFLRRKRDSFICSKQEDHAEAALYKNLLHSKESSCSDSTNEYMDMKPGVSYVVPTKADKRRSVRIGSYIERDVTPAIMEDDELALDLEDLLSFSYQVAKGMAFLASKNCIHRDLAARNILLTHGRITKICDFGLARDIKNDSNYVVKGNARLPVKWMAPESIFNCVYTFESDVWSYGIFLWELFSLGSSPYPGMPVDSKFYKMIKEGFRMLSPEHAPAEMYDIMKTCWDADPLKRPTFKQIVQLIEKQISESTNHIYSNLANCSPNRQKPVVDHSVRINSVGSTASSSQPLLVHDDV
Chain of Ribosomal protein S6 kinase alpha-3 (P51812 whole entry): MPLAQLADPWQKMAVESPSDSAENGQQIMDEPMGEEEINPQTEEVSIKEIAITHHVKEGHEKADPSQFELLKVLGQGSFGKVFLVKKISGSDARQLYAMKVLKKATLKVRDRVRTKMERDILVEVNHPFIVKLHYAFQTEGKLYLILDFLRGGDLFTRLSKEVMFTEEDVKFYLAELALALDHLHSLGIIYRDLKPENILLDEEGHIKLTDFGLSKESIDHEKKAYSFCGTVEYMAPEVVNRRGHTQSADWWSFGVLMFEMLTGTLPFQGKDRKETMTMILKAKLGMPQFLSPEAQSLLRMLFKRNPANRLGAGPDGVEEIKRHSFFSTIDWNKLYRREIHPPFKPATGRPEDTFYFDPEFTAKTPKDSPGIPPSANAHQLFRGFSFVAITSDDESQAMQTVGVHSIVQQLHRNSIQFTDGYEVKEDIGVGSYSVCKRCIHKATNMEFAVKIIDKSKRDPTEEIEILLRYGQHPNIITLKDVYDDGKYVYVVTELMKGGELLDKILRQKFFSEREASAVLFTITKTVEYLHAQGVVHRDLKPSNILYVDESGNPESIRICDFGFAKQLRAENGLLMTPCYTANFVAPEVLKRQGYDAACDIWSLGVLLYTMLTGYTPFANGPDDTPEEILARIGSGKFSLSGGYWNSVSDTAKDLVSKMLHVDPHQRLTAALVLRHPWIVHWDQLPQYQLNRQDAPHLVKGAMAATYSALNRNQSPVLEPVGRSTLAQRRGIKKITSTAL
Chain of Citron Rho-interacting kinase (Homo sapiens) (O14578 whole entry): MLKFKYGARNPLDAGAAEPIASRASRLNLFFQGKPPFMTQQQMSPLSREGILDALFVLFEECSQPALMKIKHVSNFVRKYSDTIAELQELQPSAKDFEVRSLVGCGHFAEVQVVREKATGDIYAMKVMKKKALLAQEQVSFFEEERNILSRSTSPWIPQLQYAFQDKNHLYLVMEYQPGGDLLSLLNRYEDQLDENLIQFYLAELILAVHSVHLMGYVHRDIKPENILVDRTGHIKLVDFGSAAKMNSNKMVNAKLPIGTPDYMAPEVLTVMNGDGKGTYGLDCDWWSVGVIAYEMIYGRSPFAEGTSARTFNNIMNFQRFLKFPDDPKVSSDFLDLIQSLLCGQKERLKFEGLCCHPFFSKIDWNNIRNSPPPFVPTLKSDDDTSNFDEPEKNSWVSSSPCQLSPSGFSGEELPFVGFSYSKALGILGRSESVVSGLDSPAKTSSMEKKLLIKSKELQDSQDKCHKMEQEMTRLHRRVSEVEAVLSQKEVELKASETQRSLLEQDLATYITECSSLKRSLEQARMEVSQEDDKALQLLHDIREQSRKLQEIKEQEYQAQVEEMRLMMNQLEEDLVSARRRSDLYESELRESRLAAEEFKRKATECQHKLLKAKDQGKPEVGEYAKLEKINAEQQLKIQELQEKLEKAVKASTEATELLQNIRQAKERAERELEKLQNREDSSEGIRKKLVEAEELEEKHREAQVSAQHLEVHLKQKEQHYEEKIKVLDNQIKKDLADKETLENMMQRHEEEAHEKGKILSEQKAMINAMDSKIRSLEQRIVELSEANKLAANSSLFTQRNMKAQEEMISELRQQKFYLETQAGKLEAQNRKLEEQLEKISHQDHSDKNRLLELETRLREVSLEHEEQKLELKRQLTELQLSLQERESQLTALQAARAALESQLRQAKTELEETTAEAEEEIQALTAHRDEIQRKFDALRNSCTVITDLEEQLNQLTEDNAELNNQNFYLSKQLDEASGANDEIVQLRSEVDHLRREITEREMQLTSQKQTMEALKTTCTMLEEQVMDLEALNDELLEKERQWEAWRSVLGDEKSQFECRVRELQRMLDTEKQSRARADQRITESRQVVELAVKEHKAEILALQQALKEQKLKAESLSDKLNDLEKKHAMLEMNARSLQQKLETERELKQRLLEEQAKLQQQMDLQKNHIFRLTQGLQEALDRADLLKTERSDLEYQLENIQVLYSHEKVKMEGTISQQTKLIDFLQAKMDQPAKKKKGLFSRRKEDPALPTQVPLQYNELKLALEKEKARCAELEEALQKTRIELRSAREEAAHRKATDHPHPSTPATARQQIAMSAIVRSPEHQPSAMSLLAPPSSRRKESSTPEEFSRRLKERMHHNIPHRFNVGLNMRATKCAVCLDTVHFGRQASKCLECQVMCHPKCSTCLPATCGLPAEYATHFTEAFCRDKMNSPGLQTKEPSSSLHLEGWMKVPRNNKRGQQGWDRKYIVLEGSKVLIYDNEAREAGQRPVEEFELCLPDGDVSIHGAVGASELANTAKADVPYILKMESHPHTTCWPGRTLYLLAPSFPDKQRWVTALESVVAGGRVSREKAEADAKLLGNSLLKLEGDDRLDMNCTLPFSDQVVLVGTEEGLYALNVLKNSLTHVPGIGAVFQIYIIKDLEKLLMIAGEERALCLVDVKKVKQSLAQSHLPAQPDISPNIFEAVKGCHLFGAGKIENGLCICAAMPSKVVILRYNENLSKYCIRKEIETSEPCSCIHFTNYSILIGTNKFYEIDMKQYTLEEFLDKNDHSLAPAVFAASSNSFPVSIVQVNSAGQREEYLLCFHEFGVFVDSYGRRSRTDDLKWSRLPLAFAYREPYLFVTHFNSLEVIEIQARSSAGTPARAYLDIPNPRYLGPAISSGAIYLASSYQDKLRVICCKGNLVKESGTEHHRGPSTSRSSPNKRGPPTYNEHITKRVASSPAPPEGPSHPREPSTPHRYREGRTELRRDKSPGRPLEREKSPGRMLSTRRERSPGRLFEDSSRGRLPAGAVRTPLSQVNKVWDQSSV

For the molecule `COCC(=O)NC/C=C/c1ccc2ncnc(Nc3ccc(Oc4ccc(C)nc4)c(C)c3)c2c1` [CP-724714], the % of control in [1] stood at 100%.

Regarding `N#Cc1cccc(-c2c[nH]c3ncnc(N4CCOCC4)c23)c1`, in [2], the % of inhibition is 10%. In assay [3], this molecule came in with a % of control of 100%.

`CCN(CC)CCCCNc1ncc2cc(-c3cc(OC)cc(OC)c3)c(NC(=O)NC(C)(C)C)nc2n1`: the % of control in [4] and in assay [5] was 100% in each case.

Regarding `O=C(NOC[C@H](O)CO)c1ccc(F)c(F)c1Nc1ccc(I)cc1F`, the % of control in [6] was found to be 83%.

`CC[C@@H]1[C@H](F)C(=O)N[C@@H]1COc1nccc2cc(C(N)=O)c(OC)cc12` [ZIMLOVISERTIB]: the % of inhibition in [7] was -0.901%; in assay [8], 5.2%; in assay [9] it was 14.5%.

With `CCc1ccccc1C(=O)Nc1n[nH]c2c(C)c(F)c(C3C(C#N)=C(C)N(C)C(C)=C3C#N)cc12` [BAY-3827], the % of inhibition in assay [10] is 20%.

The term EC50 denotes the concentration at which the effect is half-maximal. Read a high EC50 as a less potent agent. Regarding `CCC(=O)N1CC[C@H](Nc2ncnc3c2CN(c2cnc(OC)c(C(F)(F)F)c2)CC3)C1` [LENIOLISIB], the EC50 in [11] is 83 nM.

Molecule `Nc1cnc(N2CCc3cc(S(=O)(=O)Nc4c(F)cc(Cl)cc4F)cc(N4CCCC4=O)c32)nc1` [TP-020n] yielded a % of control in [12] of 100%.

On to `CC(=O)Nc1cccc(-n2c(=O)n(C3CC3)c(=O)c3c(Nc4ccc(I)cc4F)n(C)c(=O)c(C)c32)c1`, for which, in [13], the % of control stood at 101%.

The record behind these values is ChEMBL document CHEMBL5465560, “Selectivity Literature for EUbOPEN Chemogenomic Library” (2024).
